Reference: patent publication US4849429A, “Certain 1,4-dihydro-2,6-dilower-alkyl-4-(mono-substituted pyridyl) useful for treating coronary artery or cerebral artery disease” (The Green Cross Corporation, priority 1985, dated 1989)
Structures can show the parent of a compound that is named as a salt. Where two headings read alike, the source gives them in different places.

Key:
[1] = Test 1: blood pressure depression effect, systolic pressure, indirect tail-cuff method, oral; type: in vivo, Male, spontaneously hypertension-developing rats; conditions: for Systolic blood pressure (mmHg) After 1 hr / Systolic blood pressure (mmHg) After 4 hrs / Systolic blood pressure (mmHg) After 7 hrs: 25 mg/kg oral, average value; for Systolic blood pressure (mmHg) After 1 hr: 1 hr after administration; for Systolic blood pressure (mmHg) After 4 hrs: 4 hrs after administration; for Systolic blood pressure (mmHg) After 7 hrs: 7 hrs after administration
Description: Blood pressure depression effect
(§1) Male, spontaneously hypertension-developing rats of ages of 10 to 11 weeks (in groups of 3 to 5 animals) were used in the test. For blood pressure determination, systolic pressure was measured without anesthesia by an indirect tail-cuff method using a sphygmomanometer (PE-300, Narco Bio-System).
The compound to be tested was orally administered (at a dose of 25 mg/kg in terms of the active compound) as a 10% HCO-60 (polyoxyethylene hardened castor oil) suspension. Blood pressure was determined 1, 4 and 7 hours after the administration.
Further, the blood pressure depression effect of the fumarate of the compound obtained in Example 28 described later was examined in the same manner as described above.

[2] = Test 2: blood pressure depression up to 24 hours and duration until 50% recovery, oral; type: in vivo, Male, spontaneously hypertension-developing rats; conditions: for response vs control in vivo at 25 mg/kg: Rattus norvegicus, percent based on that before administration (100); for Duration 50% recovery: duration until pressure recovered to 50% from the maximum depression value
Description: as §1

[3] = 1h after oral administration, read-out: Depression value (%) of blood pressure, 1h
[4] = 2h after oral administration, read-out: Depression value (%) of blood pressure, 2h
[5] = 4h after oral administration, read-out: Depression value (%) of blood pressure, 4h
[6] = 7h after oral administration, read-out: Depression value (%) of blood pressure, 7h
[7] = 24h after oral administration, read-out: Depression value (%) of blood pressure, 24h
[8] = maximum lowering, read-out: Depression value (%) of blood pressure, Max

| Structure (SMILES) | Systolic blood pressure (mmHg) After 1 hr [1] [mmHg] | Systolic blood pressure (mmHg) After 4 hrs [1] [mmHg] | Systolic blood pressure (mmHg) After 7 hrs [1] [mmHg] | response vs control in vivo at 25 mg/kg [2, 3] [%] | response vs control in vivo at 25 mg/kg [2, 4] [%] | response vs control in vivo at 25 mg/kg [2, 5] [%] | response vs control in vivo at 25 mg/kg [2, 6] [%] | response vs control in vivo at 25 mg/kg [2, 7] [%] | response vs control in vivo at 25 mg/kg [2, 8] [%] | Duration 50% recovery [2] [h] | time required for 50% recovery from maximum depression value (%) of blood pressure ([1]; same manner as Test 1, oral) [h] | maximum depression value (%) of blood pressure from the value (100%) before administration ([1]; same manner as Test 1, oral, before administration = 100%) [%] |
| --- | --- | --- | --- | --- | --- | --- | --- | --- | --- | --- | --- | --- |
| COC(=O)C1=C(C)NC(C)=C(C(=O)OCCN(C)Cc2ccccc2)C1c1cccc(Br)n1 (stereo not drawn) [Example 3, 2,6-Dimethyl-4-(6-bromo-2-pyridyl)-1,4-dihydropyridine-3,5-dicarboxylicacid 3-β-(N-benzyl-methylamino)ethyl ester 5-methyl ester] | 126 | 143 | 161 | 63 | 72 | 86 | 83 | 99 | 63 | 3.5 |  |  |
| COC(=O)C1=C(C)NC(C)=C(C(=O)OCCN(C)Cc2ccccc2)C1c1cccnc1C(F)(F)F (stereo not drawn) [Example 28 fumarate] |  |  |  |  |  |  |  |  |  |  | 16.2 | 67 |
| COC(=O)C1=C(C)NC(C)=C(C(=O)OCCN(C)Cc2ccccc2)C1c1cccc(C#N)n1 (stereo not drawn) [Example 1, 2,6-Dimethyl-4-(6-cyano-2-pyridyl)-1,4-dihydropyridine-3,5-dicarboxylicacid 3-β-(N-benzyl-N-methylamino)ethyl ester 5-methyl ester] | 115 | 137 | 148 | 69 | 74 | 84 | 88 | 98 | 69 | 4.4 |  |  |
| COC(=O)C1=C(C)NC(C)=C(C(=O)OCCN(C)Cc2ccccc2)C1c1ccnc(C(F)(F)F)c1 (stereo not drawn) [Example 6, 2,6-Dimethyl-4-(2-trifluoromethyl-4-pyridyl)-1,4-dihydropyridine-3,5-dicarboxylic acid 3-β-(N-benzyl-N-methylamino)ethyl ester 5-methyl ester] | 139 | 145 | 145 |  |  |  |  |  |  |  |  |  |
| COC(=O)C1=C(C)NC(C)=C(C(=O)OCCN(C)Cc2ccccc2)C1c1cc([N+](=O)[O-])ccn1 (stereo not drawn) [Example 5, 2,6-Dimethyl-4-(4-nitro-2-pyridyl)-1,4-dihydropyridine-3,5-dicarboxylic acid 3-β-(N-benzyl-N-methylamino)ethyl ester 5-methyl ester] | 156 | 135 | 140 | 67 | 82 | 93 | 90 | 104 | 67 | 2.3 |  |  |
| COC(=O)C1=C(C)NC(C)=C(C(=O)OCCN(C)Cc2ccccc2)C1c1cccnc1C#N (stereo not drawn) [(12), 2,6-Dimethyl-4-(2-cyano-3-pyridyl)-1,4-dihydropyridine-3,5-dicarboxylic ac id 3-β-(N-benzyl-N-methylamino)ethyl ester 5-methyl ester] |  |  |  | 66 | 71 | 76 | 88 | 98 | 66 | 5.6 |  |  |
